Test results published in ChEMBL document CHEMBL6120973 (J Med Chem, 2024).

Legend:
[1] = Cytotoxicity against human MT4 cells assessed as reduction in cell viability measured after 5 days by MTT assay; conditions: MT4 cells
[2] = Selectivity index, ratio of CC50 for human MT4 cells to EC50 for wild type HIV-1 IIIB infected in human MT4 cellS
[3] = test system: Human immunodeficiency virus 1; assay: Antiviral activity against wildtype HIV-1 IIIB infected in human MT4 cells assessed as protection against virus-induced cytopathic effect incubated for 5 days by MTT assay; assay type: functional, organism-based; conditions: Human immunodeficiency virus 1, IIIB, MT4, 120 h
[4] = target: Human immunodeficiency virus type 1 reverse transcriptase (Human immunodeficiency virus 1, UniProt Q72547); assay: Inhibition of recombinant wild type HIV-1 Reverse transcriptase incubated for 40 mins by Pico-green reagent based fluorescence analysis
[5] = test system: Human immunodeficiency virus 1; assay: Antiviral activity against HIV-1 harboring RT Y181C mutant infected in human MT4 cells assessed as protection against virus-induced cytopathic effect incubated for 5 days by MTT assay; assay type: functional, organism-based; conditions: Human immunodeficiency virus 1, MT4, 120 h
[6] = test system: Human immunodeficiency virus 1; assay: Antiviral activity against HIV-1 harboring RT Y188L mutant infected in human MT4 cells assessed as protection against virus-induced cytopathic effect incubated for 5 days by MTT assay; assay type: functional, organism-based; conditions: Human immunodeficiency virus 1, MT4, 120 h
[7] = test system: Human immunodeficiency virus 1; assay: Antiviral activity against HIV-1 harboring RT K103N mutant infected in human MT4 cells assessed as protection against virus-induced cytopathic effect incubated for 5 days by MTT assay; assay type: functional, organism-based; conditions: Human immunodeficiency virus 1, MT4, 120 h
[8] = test system: Human immunodeficiency virus 1; assay: Antiviral activity against HIV-1 harboring RT F227L/V106A double mutant infected in human MT4 cells assessed as protection against virus-induced cytopathic effect incubated for 5 days by MTT assay; assay type: functional, organism-based; conditions: Human immunodeficiency virus 1, MT4, 120 h
[9] = test system: Human immunodeficiency virus 1; assay: Antiviral activity against HIV-1 harboring RT E138K mutant infected in human MT4 cells assessed as protection against virus-induced cytopathic effect incubated for 5 days by MTT assay; assay type: functional, organism-based; conditions: Human immunodeficiency virus 1, MT4, 120 h
[10] = test system: Human immunodeficiency virus 1; assay: Antiviral activity against HIV-1 harboring RT K103N/Y181C double mutant infected in human MT4 cells assessed as protection against virus-induced cytopathic effect incubated for 5 days by MTT assay; assay type: functional, organism-based; conditions: Human immunodeficiency virus 1, MT4, 120 h
[11] = test system: Human immunodeficiency virus 1; assay: Antiviral activity against HIV-1 harboring RT L100I mutant infected in human MT4 cells assessed as protection against virus-induced cytopathic effect incubated for 5 days by MTT assay; assay type: functional, organism-based; conditions: Human immunodeficiency virus 1, MT4, 120 h

Cc1ccc(-c2cnc(Nc3ccc(C#N)cc3)nc2Nc2c(F)cc(-c3ccncc3)cc2F)cn1
CC50 at 120 h [1]: 194 µM
selectivity ratio ([2]; MT4 cells): 7300
EC50 [3]: 0.027 µM

Cc1cc(-c2ccncc2)cc(C)c1Nc1nc(Nc2ccc(C#N)cc2)ncc1-c1ccc(C(F)(F)F)nc1
CC50 at 120 h [1]: > 3720 µM
selectivity ratio ([2]; MT4 cells): > 822
EC50 [3]: 0.045 µM

COc1ncc(-c2cnc(Nc3ccc(C#N)cc3)nc2Nc2c(F)cc(-c3ccncc3)cc2F)cc1F
CC50 at 120 h [1]: > 238 µM
selectivity ratio ([2]; MT4 cells): > 4810
EC50 [3]: 0.049 µM

Cc1cc(-c2cnc(Nc3ccc(C#N)cc3)nc2Nc2c(C)cc(-c3ccncc3)cc2C)cnc1Cl
CC50 at 120 h [1]: > 242 µM
selectivity ratio ([2]; MT4 cells): > 5560
EC50 [3]: 0.043 µM

N#Cc1ccc(Nc2ncc(-c3ccnc(F)c3)c(Nc3c(F)cc(-c4ccncc4)cc3F)n2)cc1
CC50 at 120 h [1]: 121 µM
selectivity ratio ([2]; MT4 cells): 12300
IC50 [4]: 0.127 µM
EC50 [3]: 0.01 µM

Cc1cc(-c2cnc(Nc3ccc(C#N)cc3)nc2Nc2c(F)cc(-c3ccncc3)cc2F)cnc1Cl
CC50 at 120 h [1]: > 238 µM
selectivity ratio ([2]; MT4 cells): > 1560
EC50 [3]: 0.153 µM

N#Cc1ccc(Nc2ncc(-c3ccc(F)nc3)c(Nc3c(F)cc(-c4ccncc4)cc3F)n2)cc1
CC50 at 120 h [1]: 167 µM
selectivity ratio ([2]; MT4 cells): 18500
EC50 [3]: 0.009 µM

N#Cc1ccc(Nc2ncc(-c3ccncc3)c(Nc3c(F)cc(-c4ccncc4)cc3F)n2)cc1
CC50 at 120 h [1]: > 41.9 µM
selectivity ratio ([2]; MT4 cells): > 4360
EC50 [3]: 0.01 µM

Cc1cncc(-c2cnc(Nc3ccc(C#N)cc3)nc2Nc2c(C)cc(-c3ccncc3)cc2C)c1
CC50 at 120 h [1]: 11.5 µM
selectivity ratio ([2]; MT4 cells): 656
EC50 [3]: 0.018 µM

Cc1cn([C@H]2C[C@H](N=[N+]=[N-])[C@@H](CO)O2)c(=O)[nH]c1=O [ZIDOVUDINE]
EC50 [5]: 0.037 µM
EC50 [6]: 0.033 µM
EC50 [7]: 0.025 µM
CC50 at 120 h [1]: > 248 µM
selectivity ratio ([2]; mt4): > 9710
EC50 [8]: 0.028 µM
EC50 [9]: 0.03 µM
EC50 [3]: 0.026 µM

COc1ncc(-c2cnc(Nc3ccc(C#N)cc3)nc2Nc2c(C)cc(-c3ccncc3)cc2C)cc1N
EC50 [5]: 0.031 µM
EC50 [6]: 0.066 µM
EC50 [10]: 0.114 µM
EC50 [7]: 0.01 µM
CC50 at 120 h [1]: 81.1 µM
selectivity ratio ([2]; MT4 cells): 11300
EC50 [8]: 1.1 µM
EC50 [11]: 0.048 µM
EC50 [9]: 0.014 µM
EC50 [3]: 0.007 µM

Cc1cc(-c2cnc(Nc3ccc(C#N)cc3)nc2Nc2c(C)cc(-c3ccncc3)cc2C)cnc1F
CC50 at 120 h [1]: > 249 µM
selectivity ratio ([2]; MT4 cells): > 7640
EC50 [3]: 0.033 µM

N#Cc1ccc(Nc2ncc(-c3ccnc(Cl)c3)c(Nc3c(F)cc(-c4ccncc4)cc3F)n2)cc1
CC50 at 120 h [1]: 103 µM
selectivity ratio ([2]; MT4 cells): 14100
IC50 [4]: 0.138 µM
EC50 [3]: 0.007 µM

N#Cc1ccc(Nc2ncc(-c3cccs3)c(Nc3c(F)cc(-c4ccncc4)cc3F)n2)cc1
CC50 at 120 h [1]: 23.4 µM
selectivity ratio ([2]; MT4 cells): 2170
IC50 [4]: 0.105 µM
EC50 [3]: 0.011 µM

COc1cc(-c2cnc(Nc3ccc(C#N)cc3)nc2Nc2c(F)cc(-c3ccncc3)cc2F)ccn1
CC50 at 120 h [1]: > 246 µM
selectivity ratio ([2]; MT4 cells): > 12400
EC50 [3]: 0.02 µM

N#Cc1ccc(Nc2ncc(-c3cncc(N)c3)c(Nc3c(F)cc(-c4ccncc4)cc3F)n2)cc1
CC50 at 120 h [1]: 167 µM
selectivity ratio ([2]; MT4 cells): 2380
EC50 [3]: 0.07 µM

COc1ncc(-c2cnc(Nc3ccc(C#N)cc3)nc2Nc2c(F)cc(-c3ccncc3)cc2F)cc1N
CC50 at 120 h [1]: 215 µM
selectivity ratio ([2]; MT4 cells): 4930
EC50 [3]: 0.044 µM

N#Cc1ccc(Nc2ncc(-c3ccsc3)c(Nc3c(F)cc(-c4ccncc4)cc3F)n2)cc1
CC50 at 120 h [1]: 72.1 µM
selectivity ratio ([2]; MT4 cells): 10100
IC50 [4]: 0.073 µM
EC50 [3]: 0.007 µM

N#Cc1ccc(Nc2ncc(-c3ccc(N)nc3)c(Nc3c(F)cc(-c4ccncc4)cc3F)n2)cc1
CC50 at 120 h [1]: 143 µM
selectivity ratio ([2]; MT4 cells): 5790
EC50 [3]: 0.025 µM

COc1ccc(-c2cnc(Nc3ccc(C#N)cc3)nc2Nc2c(C)cc(-c3ccncc3)cc2C)cn1
CC50 at 120 h [1]: > 250 µM
selectivity ratio ([2]; MT4 cells): > 3270
EC50 [3]: 0.077 µM

COc1ccc(-c2cnc(Nc3ccc(C#N)cc3)nc2Nc2c(F)cc(-c3ccncc3)cc2F)cn1
CC50 at 120 h [1]: 169 µM
selectivity ratio ([2]; MT4 cells): 6430
EC50 [3]: 0.026 µM

N#Cc1ccc(Nc2ncc(-c3cncc(F)c3)c(Nc3c(F)cc(-c4ccncc4)cc3F)n2)cc1
CC50 at 120 h [1]: 156 µM
selectivity ratio ([2]; MT4 cells): 9400
EC50 [3]: 0.017 µM

Cc1cc(-c2ccncc2)cc(C)c1Nc1nc(Nc2ccc(C#N)cc2)ncc1-c1cncc(F)c1
CC50 at 120 h [1]: > 257 µM
selectivity ratio ([2]; MT4 cells): > 6000
EC50 [3]: 0.043 µM

Cc1cncc(-c2cnc(Nc3ccc(C#N)cc3)nc2Nc2c(F)cc(-c3ccncc3)cc2F)c1
CC50 at 120 h [1]: 104 µM
selectivity ratio ([2]; MT4 cells): 2540
EC50 [3]: 0.041 µM

N#Cc1ccc(Nc2ncc(-c3cncc(Cl)c3)c(Nc3c(F)cc(-c4ccncc4)cc3F)n2)cc1
CC50 at 120 h [1]: 159 µM
selectivity ratio ([2]; MT4 cells): 9340
EC50 [3]: 0.017 µM

Cn1c(Cn2ccc(C(F)(F)F)c(Oc3cc(Cl)cc(C#N)c3)c2=O)n[nH]c1=O [DORAVIRINE]
IC50 [4]: 0.033 µM

Cc1ccnc2c1NC(=O)c1cccnc1N2C1CC1 [NEVIRAPINE]
EC50 [6]: > 10 µM
EC50 [10]: > 10 µM
CC50 at 120 h [1]: > 15 µM
EC50 [8]: > 10 µM
EC50 [11]: 1.79 µM
EC50 [9]: 0.142 µM

N#Cc1ccc(Nc2ncc(-c3ccc(Cl)nc3)c(Nc3c(F)cc(-c4ccncc4)cc3F)n2)cc1
CC50 at 120 h [1]: 196 µM
selectivity ratio ([2]; MT4 cells): 19100
EC50 [3]: 0.01 µM

Cc1cc(-c2cnc(Nc3ccc(C#N)cc3)nc2Nc2c(F)cc(-c3ccncc3)cc2F)cc(C)n1
CC50 at 120 h [1]: 97.9 µM
selectivity ratio ([2]; MT4 cells): 984
EC50 [3]: 0.1 µM

N#Cc1ccc(Nc2ncc(-c3cccnc3)c(Nc3c(F)cc(-c4ccncc4)cc3F)n2)cc1
CC50 at 120 h [1]: > 41.9 µM
selectivity ratio ([2]; MT4 cells): > 2250
EC50 [3]: 0.019 µM

Cc1cc(-c2cnc(Nc3ccc(C#N)cc3)nc2Nc2c(F)cc(-c3ccncc3)cc2F)cnc1F
CC50 at 120 h [1]: > 246 µM
selectivity ratio ([2]; MT4 cells): > 9800
EC50 [3]: 0.025 µM

O=C1Nc2ccc(Cl)cc2[C@@](C#CC2CC2)(C(F)(F)F)O1 [EFAVIRENZ]
EC50 [5]: 0.006 µM
EC50 [7]: 0.059 µM
CC50 at 120 h [1]: > 7.49 µM
EC50 [8]: 0.181 µM
EC50 [11]: 0.024 µM
EC50 [3]: 0.045 µM

Cc1cc(-c2cnc(Nc3ccc(C#N)cc3)nc2Nc2c(F)cc(-c3ccncc3)cc2F)ccn1
CC50 at 120 h [1]: 162 µM
selectivity ratio ([2]; MT4 cells): 8090
EC50 [3]: 0.02 µM

Cc1cc(-c2cnc(Nc3ccc(C#N)cc3)nc2Nc2c(C)cc(-c3ccncc3)cc2C)cc(C)n1
CC50 at 120 h [1]: 36.1 µM
selectivity ratio ([2]; MT4 cells): 563
EC50 [3]: 0.064 µM

N#Cc1ccc(Nc2ncc(-c3ccco3)c(Nc3c(F)cc(-c4ccncc4)cc3F)n2)cc1
CC50 at 120 h [1]: > 42.9 µM
selectivity ratio ([2]; MT4 cells): > 6300
IC50 [4]: 0.077 µM
EC50 [3]: 0.007 µM

Cc1cc(-c2ccncc2)cc(C)c1Nc1nc(Nc2ccc(C#N)cc2)ncc1-c1ccc(Cl)nc1
CC50 at 120 h [1]: 3.98 µM
selectivity ratio ([2]; MT4 cells): 3990
IC50 [4]: 0.175 µM
EC50 [3]: 0.001 µM

Cc1cc(-c2ccncc2)cc(C)c1Nc1nc(Nc2ccc(C#N)cc2)ncc1-c1ccc(N(C)C)nc1
CC50 at 120 h [1]: > 39 µM
selectivity ratio ([2]; MT4 cells): > 350
EC50 [3]: 0.112 µM

CN(C)c1ccc(-c2cnc(Nc3ccc(C#N)cc3)nc2Nc2c(F)cc(-c3ccncc3)cc2F)cn1
CC50 at 120 h [1]: 52.9 µM
selectivity ratio ([2]; MT4 cells): 714
EC50 [3]: 0.074 µM
